Values quoted from earlier work, collected in patent EP4570798A1, “AROMATIC HETEROCYCLIC CYCLOHEXYL AMINOALKYL PIPERIDINE DERIVATIVE, PREPARATION METHOD AND USE THEREOF” (Jiangsu NHWA Pharmaceutical Co., Ltd, priority 2022, dated 2024).

Key:
D2 = D2 (Homo sapiens, UniProt P14416); conditions: literature value; cited from earlier work
D3 = D3 (Homo sapiens, UniProt P35462); conditions: literature value; cited from earlier work
5-HT1A = target: T1, 5-HT1A (Homo sapiens, UniProt P08908); conditions: literature value; cited from earlier work
T1 sequence (P08908 1-422): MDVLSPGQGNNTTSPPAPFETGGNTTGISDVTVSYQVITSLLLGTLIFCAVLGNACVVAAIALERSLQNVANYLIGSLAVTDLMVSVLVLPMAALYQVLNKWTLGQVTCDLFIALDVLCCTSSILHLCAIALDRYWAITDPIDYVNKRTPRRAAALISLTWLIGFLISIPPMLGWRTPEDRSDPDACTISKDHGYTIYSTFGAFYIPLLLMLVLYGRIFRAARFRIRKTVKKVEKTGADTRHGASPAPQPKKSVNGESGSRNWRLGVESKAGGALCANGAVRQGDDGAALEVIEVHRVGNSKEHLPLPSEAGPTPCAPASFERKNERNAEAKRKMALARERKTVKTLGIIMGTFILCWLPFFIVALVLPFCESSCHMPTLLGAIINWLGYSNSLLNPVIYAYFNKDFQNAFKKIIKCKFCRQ

5HT1A/1B = 5HT1A/1B agonist, literature value; cited from earlier work

Sequence of D3 (P35462 whole entry): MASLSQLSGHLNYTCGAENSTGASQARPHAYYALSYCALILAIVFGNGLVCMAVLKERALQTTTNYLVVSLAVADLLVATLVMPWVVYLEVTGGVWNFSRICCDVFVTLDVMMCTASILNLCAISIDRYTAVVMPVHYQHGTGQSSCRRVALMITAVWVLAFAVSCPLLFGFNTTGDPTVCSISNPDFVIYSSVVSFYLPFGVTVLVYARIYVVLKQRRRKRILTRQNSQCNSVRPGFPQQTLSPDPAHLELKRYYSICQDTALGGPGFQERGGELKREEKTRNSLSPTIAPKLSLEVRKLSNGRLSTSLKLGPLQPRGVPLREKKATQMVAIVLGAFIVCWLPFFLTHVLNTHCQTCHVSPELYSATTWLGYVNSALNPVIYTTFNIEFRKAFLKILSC
Sequence of D2 (P14416 whole entry): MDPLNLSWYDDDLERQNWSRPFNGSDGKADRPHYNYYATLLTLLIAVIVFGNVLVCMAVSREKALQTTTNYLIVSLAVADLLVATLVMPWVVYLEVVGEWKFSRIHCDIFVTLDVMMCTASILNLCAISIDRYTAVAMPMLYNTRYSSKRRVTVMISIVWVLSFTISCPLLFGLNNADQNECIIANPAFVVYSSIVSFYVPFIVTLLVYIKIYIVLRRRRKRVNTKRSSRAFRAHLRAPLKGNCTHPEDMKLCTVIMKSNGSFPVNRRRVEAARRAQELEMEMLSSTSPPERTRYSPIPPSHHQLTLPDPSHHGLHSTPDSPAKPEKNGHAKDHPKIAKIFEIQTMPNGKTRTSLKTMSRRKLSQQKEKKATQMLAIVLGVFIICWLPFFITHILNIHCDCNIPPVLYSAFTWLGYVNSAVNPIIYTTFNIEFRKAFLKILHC

Question: For O=c1[nH]c2cccc(N3CCN(Cc4cccc(-c5ccccc5)c4)CC3)c2o1 [Bifeprunox], which EC50 (D2) is on record?
Answer: Its EC50 is 39.8 nM.

Question: And the IC50 (D3)?
Answer: Its IC50 is 15.2 nM.

Question: And the EC50 (5-HT1A)?
Answer: The EC50 was 47.8 nM.

Question: For c1cc2c(c(N3CCNCC3)c1)OCCO2 [Eltoprazine], which EC50 (5HT1A/1B) is on record?
Answer: Its EC50 is 148 nM.

Question: What does the source list for CN1CCN(c2cccc3[nH]c(=O)oc23)CC1 [Pardoprunox]?
Answer: EC50 (D2): 10 nM; EC50 (D3): 0.6 nM; EC50 (5-HT1A): 500 nM
